Data published in patent US20080194619A1, “Anti-Hiv Quinuclidine Compounds” (priority 2004, published 2008).
Like-named read-outs stand apart in the source and are kept apart here.

Experiments:
[1] = tested on: HeLa cells; experiment: MTT cytotoxicity assay (mitochondrial integrity)
Method: Following the above described cell treatment protocol, the levels of cellular 3-(4,5-dimehtylthiazol-2-yl)-2,5-diphenyl tetrazolium bromide (MTT) reduction, a measure of mitochondrial integrity, were determined in order to examine whether the compounds tested were cytotoxic.

[2] = tested on: HIV-1 IIIB; experiment: GenPhar AV-Finder-HIV Drug Discovery Assay, HIV-1 IIIB replication in HeLa indicator cells; format: cell-based; settings: for IC50: read-out: IC50 of HIV replication inhibition
Excerpt: In order to study the viral replication in vitro, the GenPhar AV-Finder™-HIV Drug Discovery Assay was used, a novel technology that consists of two components: (1) a cloned, continuous-passage HeLa cell line containing an HIV-1 tat-activated molecular switch and a Green Fluorescent Protein reporter gene and (2) a recombinant adenovirus (rAd) vector containing the genes for all three of the HIV-1 receptor/co-receptors (CD4, CXCR4, and CCR5) to transduce into HeLa cells and convert them into highly susceptible HIV-1 indicator cells for use in the assay. The indicator cells over-express the HIV-1 receptor genes and are readily infected with any HIV-1 strain or isolate. […] Infected cells fluoresce brightly so that the inhibition of virus replication by potential antiviral drugs can be readily detected and quantified using standard laboratory plate reader technology.
(§1) Detector plates are set up at day 1 by adding HeLa cells (3000/well) to the adenovirus AD-3R in DMEM containing CCS in 96-well plates and incubated at 37° C. under 95% humidity and 5% CO2 for 2 days. […] At day 4, the medium was replaced by fresh medium containing the corresponding concentration of the compounds of interest. The infectivity was assessed by measuring the fluorescence on each well at day 7 ([…]). […] At day 5, the medium was replaced by fresh medium containing the corresponding concentration of compounds of interest and the infectivity was assessed by measuring the fluorescence on each well at day 8. Results are expressed as percentage of inhibition of the viral replication.
(4-amino-phenyl)-(1-aza-bicyclo[2.2.2]oct-4-yl)-methanone (FIG. 1) was used either alone dissolved in water (SP003) or in an aqueous formulation (SP003A) containing zinc sulfate heptahydrate and ascorbic acid at the ratio of 26.6/1/1.6 (for example 200 mg SP003 with 7.5 mg of zinc sulfate heptahydrate and 12.5 mg of ascorbic acid; Xu, J. et al., J. Pharmacol. Exper. Ther., (2003) 307:1148-1157.

[3] = tested on: HIV MDR 769 strain; experiment: AV-Finder-HIV assay, multi-drug resistant HIV MDR 769 strain replication in HeLa cells; format: cell-based
Excerpt: In order to study the viral replication in vitro, the GenPhar AV-Finder™-HIV Drug Discovery Assay was used, a novel technology that consists of two components: (1) a cloned, continuous-passage HeLa cell line containing an HIV-1 tat-activated molecular switch and a Green Fluorescent Protein reporter gene and (2) a recombinant adenovirus (rAd) vector containing the genes for all three of the HIV-1 receptor/co-receptors (CD4, CXCR4, and CCR5) to transduce into HeLa cells and convert them into highly susceptible HIV-1 indicator cells for use in the assay. The indicator cells over-express the HIV-1 receptor genes and are readily infected with any HIV-1 strain or isolate. All HIV-1 strains tested thus far, regardless of co-receptor preference, and all subtypes or classes of HIV-1 will infect these indicator cells. Infected cells fluoresce brightly so that the inhibition of virus replication by potential antiviral drugs can be readily detected and quantified using standard laboratory plate reader technology.
as §1

## Cc1cn([C@H]2C[C@H](N=[N+]=[N-])[C@@H](CO)O2)c(=O)[nH]c1=O [AZT, reference compound]
[1]; read-out: toxicity IC50 (MTT cytotoxicity assay)
  IC50: 161000 nM
[2]; 24 hours pre-medication
  curve plateau, inhibition of viral replication: around 40%
[2]; 48 hours pretreatment, FIG. 4
  IC50: 30 nM
[3]; without pre-medication, FIG. 5
  inhibition of HIV MDR 769 strain replication (in words): not effective

## Nc1ccc(C(=O)C23CCN(CC2)CC3)cc1 [SP003, (4-Amino-phenyl)-(1-aza-bicyclo[2.2.2]oct-4-yl)-methanone]
[1]; all concentrations tested, up to 100 μM
  cell toxicity (MTT cytotoxicity assay): devoid of cell toxicity
[2]; 48 hours pretreatment, FIG. 4
  inhibition of HIV replication: 50%
[2]; Human immunodeficiency virus 1, IIIB, HeLa, 48 hours pretreatment, FIG. 4
  IC50: 0.03 nM
[2]; no pre-medication, HeLa cells, FIG. 2
  inhibition of HIV-1 IIIB viral replication (in words): higher efficiency than the classical antiviral agent ddI
[2]; no pre-medication, concentrations in the nanomolar range
  inhibition of HIV-1 IIIB replication: up to 50%
[3]; Human immunodeficiency virus 1, HeLa, read-out: IC50 of HIV MDR 769 viral replication inhibition
  IC50: 0.01 nM
[3]; without pre-medication, FIG. 5
  inhibition of HIV MDR 769 viral replication: 60%

## O=c1[nH]cnc2c1ncn2[C@H]1CC[C@@H](CO)O1 [ddI]
[1]
  IC50: 89000 nM
